Measured values published in PubChem BioAssay AID179 (DTP/NCI, 2004).
pEC50, pIC50: −log10 of the molar value. Values joined by “and” are separate entries in the source; they are usually repeats but may differ in a detail not shown here. Equal values may be shown once. Active and inactive are the calls of the source.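 Rule for the calls: active = compounds giving half or more protection of infected cells from virus-caused growth loss, again on retest; inactive = the rest.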

System: CEM cells HIV-1 protection, formazan growth assay
Experiment: NCI AIDS Antiviral Assay
Details: for pIC50: measured here: growth of uninfected CEM cells
In short: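 Steps: treat uninfected and HIV-1-infected human CEM cells at five drug levels; quantify growth by soluble formazan; retest any compound reaching 50% protection; classify actives from the retest.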

Compound	outcome	pEC50	pIC50
N=C(N)N1CCNc2ccccc2C1	inactive		
CC(C)CC(=O)NC(C(=O)NC(C(=O)NC(CC(C)C)C(O)CC(=O)NC(C)C(=O)NC(CC(C)C)C(O)CC(=O)O)C(C)C)C(C)C (stereo not given)		< 4.44	< 4.44
O/N=C(\C(=N/O)Nc1ccc(-c2ccc(NC(=N/O)/C(=N\O)c3ccccc3)cc2)cc1)c1ccccc1		< 4.43	4.51
Cc1c2ccncc2cc2c1sc1ccncc12		< 4.40	6.23
OCc1cc2c(cc1CO)OCC2	inactive		
CS1(C)=NC(=O)C2=C(N=1)c1ccccc1S2(=O)=O		< 4.32	< 4.32
Cc1ccc(NC(=O)C(=O)Cc2cc[n+]([O-])cc2)cc1		< 4.32	< 4.32
O=C(O)CCC(CCC(=O)O)(C(=O)O)c1ccccc1		< 2.25	2.35
O=C1CN(/C=C(\c2ccccc2)S(=O)Cc2ccccc2)C(=S)N1 (stereo not given)		< 3.70	< 3.70
Cn1c(=O)c2[nH]c(SSc3nc4c([nH]3)c(=O)n(C)c(=O)n4C)nc2n(C)c1=O		4.45	3.79
COC(=O)C12C3C=CC(O3)C1C1C=CC2O1 (stereo not given)	inactive		
O=C(N/C(=C\c1c(O)ccc2ccccc12)c1nc2ccccc2[nH]1)c1ccccc1		< 4.65	< 4.65
Cc1nn(C(=O)c2ccc(Cl)cc2)c2c1C(c1cccc([N+](=O)[O-])c1)SC(N)=N2 (stereo not given)		3.90	3.86
Oc1ccc(-c2nn3c(CCCCCCCCc4nnc5sc(-c6ccc(O)cc6)nn45)nnc3s2)cc1		3.84	< 3.70
COc1ccc(N2C(=O)C3c4[nH]c5ccc(OC)cc5c4C4CCC(c5ccccc5)CC4C3C2=O)cc1 (stereo not given)		< 4.00	4.17
C=C1CN(S(=O)(=O)c2ccc(C)cc2)CCCN(CC2CC2)CCCN(S(=O)(=O)c2ccc(C)cc2)C1		< 3.70	5.37
c1ccc(Oc2ncnc3ccccc23)cc1		< 3.70	4.20
O=c1cc2c(n[nH]1)CCCC2		< 3.15	< 3.15
O=C(CN1C(=O)c2cccc3c(Br)ccc(c23)C1=O)c1ccc(Cl)cc1		< 3.70	4.48
C=CC(CCC(C)OC(CCC)OCC)[Si](C)(C)C (stereo not given)		< 4.04	< 4.04
Cc1ccc2c(c1)CNc1ccc(C)cc1CN2	inactive		
CC(C)CCC[C@@H](C)[C@H]1CC[C@H]2[C@@H]3CC[C@H]4C[C@@H](CCCC(c5ccc(O)c(C(=O)O)c5)c5ccc(O)c(C(=O)O)c5)CC[C@]4(C)[C@H]3CC[C@]12C		4.19	< 4.00

Compound	outcome	pEC50	pIC50
CCCCS/C(=C(/C#N)C(N)=O)c1cc2c([nH]1)CCCC2	inactive		
N#C/C(=C\c1ccc(O)c(O)c1)C(=S)NCc1ccccc1		< 3.70	4.49
CC(C)c1cc(C(C)C)c(S(=O)(=O)N/N=C2\CC3CCC2(C)C3(C)C)c(C(C)C)c1 (stereo not given)		< 3.70	4.73
COc1ccc(-c2nc(SC)n(C3OC(COC(C)=O)C(OC(C)=O)C(OC(C)=O)C3OC(C)=O)c(=O)c2C#N)cc1 (stereo not given)		< 3.70	4.38 and 4.33
COc1cc(OC)c2nc3ccccc3c(NCCC[N+](C)(C)[O-])c2c1[N+](=O)[O-]		< 3.70	3.88
COc1ccc2[nH]cc(CN3CCC(CO)(c4ccccc4)CC3)c2c1		< 3.70	4.04
CCOC(=O)Nn1c(C)nnc1CC#N		< 3.70	< 3.70
CC(=O)N(C(=O)CC(=O)NN)c1ccc(Cl)cc1	inactive		
CCOC(=O)[C@@H]1[C@@H]2NC(=O)N[C@@]1(C)Oc1ccccc12		< 3.70	< 3.70
C/C=C/[C@@H]1[C@H]2C(=O)[C@]3(Cl)[C@@H](/C=C/C)[C@@H]3C(=O)[C@@]12Cl	inactive		
O=C(CC(=O)n1nc(-c2ccccc2)c(N=Nc2ccccc2Cl)c1-c1ccccc1)Nc1ccc(Cl)cc1		< 4.47	< 4.47
COc1ccc(CN2CCCN(Cc3ccc(OC)cc3)C2c2cc([N+](=O)[O-])ccc2O)cc1		< 3.70	4.54
COC(=O)Nc1cn2ccsc2n1	inactive		
C=CC[C@@]12CC(C=CC13OCCO3)OC(O)[C@@H]2C (stereo not given in full)		< 3.70	3.84
CCCC(=O)N/S(=N/S(=O)(=O)c1ccc(Cl)cc1)C(Cl)(Cl)Cl (stereo not given)		3.79	< 3.70
CCOc1ccc(NC(=O)CC2C(=O)Nc3ccccc3S2=O)cc1 (stereo not given)		< 5.12	< 5.12
Cc1ccc2c(c1)nc1n2C(N)=Nc2ccccc2S1		< 3.70	4.94
[CH3][Ga]([CH3])[n]1cccn1		< 3.25	4.13
Cc1cn([C@H]2C[C@@H](N(O)C(=O)Nc3ccccc3)[C@@H](CO)O2)c(=O)[nH]c1=O		< 3.70	< 3.70
COC(=O)c1cc(C(c2cc(C(=O)OC)c(OC)c(Br)c2C)C(Cl)Cl)c(C)c(Br)c1OC		< 3.70	5.00
Cc1ccc2c(c1)S(=O)c1cc(C)ccc1S2	inactive		4.84
COC(=O)c1ccc(/C=C/c2cc(O)ccc2O)cc1		< 4.70	5.51

Compound	outcome	pEC50	pIC50
C/C=C\C(O)C#Cc1cnc(OC)nc1OC (stereo not given)		< 3.70	4.37
CCC(CS(=O)(=O)O)[N+](=O)[O-] (stereo not given)		< 3.70	< 3.70
CNC(=S)N/N=C(\C(=N/NC(=S)NC)c1ccccn1)c1ccccn1		< 6.70	7.29
COC(=O)C(CCS(=O)(=O)CC(=O)C(=O)Nc1cccc(C(C)=O)c1)C(=O)OC	inactive		
COc1ccc(-n2c(N)c(C#N)c(C#N)c2-c2ccco2)cc1		< 3.70	< 3.70
O=C(/C=C(\C(=O)c1cccs1)c1cccs1)c1ccc(C(=O)/C=C(\C(=O)c2cccs2)c2cccs2)cc1		< 3.70	< 3.70
CC(=O)OC1SCC2OC(=O)OC21 (stereo not given)		< 2.91	< 2.91
CC1=CC(C/C(C)=C/COc2ccc3ccc(=O)oc3c2)OC1=O (stereo not given)		< 5.49	< 5.49
C#Cc1c(C)c(/C=C/C(C)=C\C(=O)OC)n(C)c1C		< 4.55	< 4.55
O=P1(c2ccccc2)C(c2ccccc2)=CC=C1c1ccccc1		< 3.70	5.13
COC(=O)c1ccc(CSc2ccc(N)cc2)cc1	inactive		
CN1CN(c2ccccc2)C2(CCN(C3Nc4ccccc4O3)CC2)C1=O (stereo not given)		< 3.70	4.13
Nc1cc(Nc2ccc(Cl)[nH]c2=S)nc(N)n1		< 3.73	5.24
CC(C)(C)c1cc(C2COC(c3cc(C(C)(C)C)c(O)c(C(C)(C)C)c3)CO2)cc(C(C)(C)C)c1O (stereo not given)		< 4.30	< 4.30
Cc1cn(C2CC(N=C(N)NO)C(CO)O2)c(=O)[nH]c1=O (stereo not given)		< 2.28	3.15
CC1=C(C(=O)Nc2cc(F)c(F)cc2F)C(c2ccc([N+](=O)[O-])cc2)C(C(=O)Nc2cc(F)c(F)cc2F)=C(C)N1		< 4.11	4.14
CCOC(=O)C1=NN(c2ccc(C)cc2)C2(c3ccccc3)C=C(c3ccccc3)N(C)CCN12 (stereo not given)		< 3.70	3.84
CN=S(=O)(C[C@]1(O)CC2OC1C1OC(C)(C)OC21)c1ccccc1 (stereo not given in full)		< 3.15	< 3.15
Nc1ccc2ncc(Nc3ccc(F)cc3)nc2c1		< 3.57	3.87
Cc1ccccc1SSCCN	inactive		
CCCCNC(=O)C1C(=O)N(CCCC)C(=O)/C1=N\N (stereo not given)		< 4.59	< 4.59
COC(=O)C(=O)C(C(=O)C(=O)Nc1ccc(Cl)c(Cl)c1)c1nc2ccc(C(=O)c3ccccc3)cc2[nH]c1=O (stereo not given)		< 4.48	< 4.48

Compound	outcome	pEC50	pIC50
O=C(O)c1ccccc1O.OC1CCCC2CCC[N-]C12.[Cu+] (stereo not given)		< 3.70	6.22
O=C(/C=C/c1ccccc1Cl)NC1C=Nc2ccc([N+](=O)[O-])cc2NC1 (stereo not given)		< 4.57	< 4.57
CN(CCCNC(=O)c1cn(C)c2c1ccc1ccccc12)CCCNC(=O)c1cn(C)c2c1ccc1ccccc12		< 3.70	5.54
Cc1cc(N(CCC#N)CCC#N)ccc1/C=C/C(=O)Nc1cccc(Cl)c1		< 4.18	< 4.18
CCOC(=O)CC(=O)ON(C)C(C)=O		< 3.60	< 3.60
CCc1n[nH]c(=O)n1/N=C/c1ccccc1Cl		< 3.70	< 3.70
Cc1cc(C)c(-c2noc(-c3ccccc3)c2C2=NCCN2)c(C)c1	inactive		
CC1C(=O)C(C)C(c2cccs2)N(N=O)C1c1cccs1 (stereo not given)		< 4.23	4.43
N#CCCN(CCC#N)c1ccc(/C=C(/NC(=O)c2cc([N+](=O)[O-])ccc2Cl)C(=O)N=[N+]=[N-])cc1		< 4.69	< 4.69
CCOC(=O)C(C)c1nc2c(Cl)c3ncccc3cc2[nH]c1=O (stereo not given)		< 3.70	< 3.70
COc1ccc(CCn2cnn3c(=O)c4ccccc4nc3c2=O)cc1OC		< 4.86	< 4.86
O=C(O)c1cccc(/C=C/c2ccc(N=Nc3c(O)cc(O)cc3C(=O)O)cc2C(=O)O)c1		< 3.70	3.80
CC(C)(C)c1cc(C(C)(C)C)c2[n+]([O-])ssc1-2		< 3.84	4.69
CCOC(=O)C(C#N)C(C)CC (stereo not given)		< 3.70	< 3.70
N/N=C(\c1ccccc1)c1cccs1		< 3.70	< 3.70
CC(C)N1CNC(=O)C12CCN(CC1COc3ccccc3O1)CC2 (stereo not given)		< 3.70	< 3.70
CCCCCCCCCO/N=C\c1c2c(O)c3c(O)c(C)c4c(c3c1O)C(=O)C(C)(O/C=C\C(OC)C(C)C(OC(C)=O)C(C)C(O)C(C)C(O)C(C)/C=C\C=C(\C)C(=O)N2)O4 (stereo not given)		< 3.70	5.50
Clc1c(C(Cl)(Cl)Cl)nsc1N1CCCCC1		< 3.70	4.14
COc1ccc2cc(C(=O)NCCCNC(=O)c3ccc4c(OC)c(OC)ccc4c3)ccc2c1OC		< 3.70	< 3.70
CC(=O)O[C@H]1CC[C@]2(C)C3CC[C@]4(C)C([C@H](C)CCCC(C)C)CCC4[C@]3(C#N)n3c(=O)n(-c4ccccc4)c(=O)n3[C@]2(C#N)C1 (stereo not given in full)		< 3.70	< 3.70
